Results from EP2067861A1, “Animals of the rattus genus wherein msh6 expression is functionally decreased and methods for the generation of specific mutants therefrom” (Koninklijke Nederlandse Akademie van Wetenschappen, priority 2007, dated 2009).

Test system: msh6^-/- male rats
Assay: Survival of ENU treated msh6^-/- male rats
Assay type: in vivo, rat
Conditions: for # Surviving founders: 3 x 30 mg/kg bodyweight ENU
Description: • Figure 1. Characteristics of the msh6^-/- rat. (A) Genomic organization of the msh6 gene in rats. The arrow marks the position of the ENU-induced mutation that results in a premature stop codon. The sequence trace indicates the T to A […] in a heterozygous rat. (B) Western blot (WB) of testes and cultured rat embryonic fibroblast (CREF) lysates stained with antibodies against human MSH6 (160 kDa). Lysate of human embryonic kidney (HEK) cells was loaded as a positive control. MSH6 protein is completely absent in msh6^-/- testes and CREF. Coomassie brilliant blue staining (CBB) was used as a control for protein loading. • Figure 2. Microsatellite instability in the germ line. (A) A mononucleotide repeat of 20 repetitive subunits (G)20 was analyzed in a cross between a msh6^-/- father and a wild type mother and their msh6^+/- offspring. The red line indicates the size of the most prominent amplification product in both parents. In the DNA sample of the offspring one of the alleles has lost one repetitive subunit. (B) Fragment analysis of a dinucleotide repeat (CA)36 that is polymorphic between the founder animals. […] The orange peaks represent the size marker that was loaded to determine the size of the PCR product. • Figure 3. Survival of the msh6^-/- rats. The time the rats became moribund is recorded. Red line, msh6^-/- rats (n=17); black line, control group (n=100, Source Harlan). • Figure 4. Tumors observed in the msh6^-/- rat. (A) Section of a mediastinal lymphoblastic lymphoma of a msh6^-/- male rat stained with HE. (B) A higher magnification of the lymphoblastic lymphoma. (C) Section of a leiomyosarcoma of the endometrium stained with HE. (D) Section of an endometrial carcinoma stained with HE. (E) A higher magnification of the endometrial carcinoma. (F) A section of a squamous cell carcinoma in the stomach of a msh6^-/- female rat stained with HE. (G) Section of a fibroadenoma of a msh6^-/- male rat stained with HE. (H) Section of a liver with lymphoblastic lymphoma leukemia stained with HE. (I) Section of a testicle containing a Leydig cell tumor stained with HE. • Figure 5. Survival of msh6^-/- male rats after treatment of different concentrations of ENU compared to untreated msh6^-/- male rats. Time points of the last ENU injection and the beginning of the mutation discovery screen are indicated. • Figure 6. ENU-induced target-selected knockout protocol. (A) Msh6^-/- males were mutagenized and crossed with wild-type Wistar females. At two weeks of age tissue samples from the F1 progeny were taken and DNA was isolated. (B) For every DNA samples 768 pre-selected amplicons were PCR amplified and dideoxy sequenced. (C) Sequence traces for the same amplicon of the different animals was aligned, processed with PolyPhred (Nickerson et al, (1997) Nucleic Acids Res 25, 2745-51) and analyzed using in house developed software. (D) ENU-induced de novo mutations were verified by independent PCR amplification and sequencing and pups carrying interesting mutations were weaned. The whole procedure from taking tissue samples to weaning interesting mutants takes 1 week, indicated in the centre of the figure. • Figure 7. ENU-induced mutation spectrum in MSH6 deficient background compared to MMR proficient animals. […] (B) The change of introducing a premature stop codon with ENU-induced MSH6 proficient and deficient mutation spectra. For the calculations the sequences of the 768 representative exon-containing amplicons were used (* indicates significance, p < 0.05).
All experiments were approved by the Animal Care Committee of the Royal Dutch Academy of Science according to the Dutch legal ethical guidelines. Experiments were designed to minimize the number of required animals and their suffering. Male MSH6 knockout rats (Msh6^1Hubr) of 12 weeks of age were given three weekly intraperitoneal injections of 25, 30 and 35 mg/kg bodyweight ENU. […]

CCN(N=O)C(N)=O [ENU, N-ethyl-N-nitrosourea]
# Surviving founders (17 - 19 weeks after last injection): 5/5 | # Surviving founders (20 - 22 weeks after last injection): 5/5 | # Surviving founders (23 - 25 weeks after last injection): 5/5 | # Surviving founders (26 - 29 weeks after last injection): 3/5 | age after which no male was alive (ENU treated msh6^-/- males): ≤ 50 weeks | average mean of survival (ENU treated msh6^-/- males (untreated msh6^-/- rats: median survival 14 months)): 37 ± 3 weeks | average mean of survival (ENU treated msh6^-/- males, same value restated in months): ~8 months | # Surviving founders (fertile msh6^-/- males, 14 - 16 weeks after last injection): 5/5
